Measurements: US20250059232A1, “PENTAPEPTIDE AND USE THEREOF” (ENSOL BIOSCIENCES INC., priority 2021, published 2025)

What was measured:
[1] = Stability test: HPLC relative purity of peptide dissolved in buffer, by pH and temperature; assay type: physicochemical
Description: For Example 1 and Comparative Example 1, stability tests according to pH for each temperature were performed.
Stability tests for each peptide were performed by liquid chromatography purity analysis for each temperature and each pH according to analysis timing (initial, 24 hours, 130 hours). […] Samples were analyzed by injecting 20 ul of each sample with an auto-sample injector, and the analysis column was Inspire C18 (4.6×250 mm, […], 12 nm) manufactured by Dikma. The analysis temperature was 40° C., and a UV wavelength of 215 nm was used.
On the basis of the HPLC analysis results, relative purity was calculated for Comparative Example 1 and Example 1 for each storage condition. The relative purity is the percentage of measured purity changing according to the storage period, with the initial purity being set to 100% for each sample. FIGS. 1 and 2 are graphs showing the results of stability tests for Example and Comparative Example stored at a temperature of 25° C., in which FIG. 1 is a graph of a test result for 24 hours of storage, and FIG. 2 is a graph of a test result for 130 hours of storage. FIGS. 3 and 4 are graphs showing the results of stability tests for Example and Comparative Example stored at 40° C., in which FIG. 3 is a graph of a test result for 24 hours of storage, and FIG. 4 is a graph of a test result for 130 hours of storage. In each graph, the x-axis represents the test group by pH and the y-axis represents the relative purity […].

MDA-MB-231 = MDA-MB-231 fat pad xenograft in athymic nude mouse: tumor volume and weight; assay type: in vivo, human
Description: 5×10^6 cells/head of the human triple negative breast cancer cell line MDA-MB-231 (American Type Culture Collection (ATCC)) were mixed with Matrigel and PBS (1:1). 100 ul of the mixture was injected into the right third fat pad of 7-week-old female athymic nude mouse. After the transplantation, drug administration started from an average tumor size of 80 mm^3. Paclitaxel 20 mg/kg was administered on Day 0 and on Day 1. That is, the paclitaxel 20 mg/kg was administered a total of two times. Then, the peptide of Example 1 was administered in a dose of 100 mg/kg on Day 2, Day 4, and Day 6. That is, the peptide of Example 1 was administered a total of three times. Tumor volumes were measured 3 times a week for 3 weeks after administration of the first dose. Tumor weights were measured by necropsy after the end of the experiment. For each group, ten mice were used.
Tumor volume changes over time for each group are shown in FIG. 8, and tumor weight on the eighteenth day after the administration of the first dose for each group is shown in FIG. 9. FIG. 8 is a graph illustrating the changes in tumor volume over time after sample administration in animal experimentation. In FIG. 8, the x-axis represents the number of days elapsed after the start of administration and the y-axis represents the tumor volume change (mm^3). FIG. 9 is a graph illustrating a tumor weight for each test group in animal experimentation. In FIG. 9, the x-axis represents test groups and the y-axis represents tumor weights (mg).

[2] = tested on: PC3 cells co-cultured with NK92 cells; assay: PC3/NK92 co-culture: Western blot of LC3II and cleaved PARP; assay type: cell-based, human; conditions: 300 uM with 10 μg/ml anti-PD-L1
Description: In addition, the expression of LC3II, which is an autophagy marker, and the expression of cleaved PARP, which is a cell death marker, were determined by a Western blot test. 1×10^6 PC3 cells were seeded in 6 wells and stabilized by culturing overnight, and the PC3 cells were treated with 10 μg/ml of the anti-PD-L1 and 300 uM of the peptide of Example 1 for each condition while the same number of NK92 cells were additionally seeded. After a predetermined period of treatment, the NK92 cells were removed by washing, and proteins were isolated from the tumor cells to determine LC3II (12 h) and PARP (24 h) expression changes. The expression amounts of each marker were calculated as proportions relative to the control. FIG. 13 is a graph showing the amount of cleaved PARP expression compared to PARP for each test group in the anticancer effect evaluation test in which the x-axis represents test groups and the y-axis represents the amount (%) of cleaved PARP expression compared to the PARP. FIG. 14 is a graph showing the amount of LC3II expression compared to actin for each test group in an anticancer effect evaluation test, in which the x-axis represents test groups, and the y-axis represents the amount (%) of LC3II expression compared to actin in the test group.

[3] = 4-week repeated subcutaneous toxicity test in rats; assay type: in vivo, rat
Description: Ten female and male rats were administered the pentapeptide of Example 1 subcutaneously at doses of 500, 1000, 2000 mg/kg daily for 4 weeks to investigate toxicity, and a safety evaluation test was performed. Specifically, general symptom observation, body weight measurement, feed consumption measurement, ophthalmological examination, and urinary examination were performed. After the end of the observation period, hematology and clinical biochemistry test, organ weight measurement, visual examination at autopsy, and histopathological examination were performed. […] Synthesizing the results described above, the no observed adverse effect level (NOEAL) for female and male was determined to be greater than or equal to 2,000 mg/kg/day when the pentapeptide of Example 1 was administered repeatedly subcutaneously to the rats for 4 weeks.

[4] = 100 mg/kg co-administered with paclitaxel, eighteenth day after first dose
[5] = 500, 1000, 2000 mg/kg subcutaneous daily for 4 weeks

Substance: Ac-QLHLD-OH [Example 1, acetyl-QLHLD]
- Stability (summary in words) ([1]; liquid state, pH 2-9, 25 and 40° C., up to 130 hours): extremely stable regardless of storage conditions
- Relative purity ([1]; pH 2, 25 ± 2° C., RH 60 ± 5%, storage 0 hours (initial set to 100%)): 100.0%
- Relative purity ([1]; pH 2, 25 ± 2° C., RH 60 ± 5%, storage 24 hours): 99.7%
- Relative purity ([1]; pH 2, 25 ± 2° C., RH 60 ± 5%, storage 130 hours): 99.9%
- Relative purity ([1]; pH 2, 40 ± 2° C., RH 75 ± 5%, storage 0 hours (initial set to 100%)): 100.0%
- Relative purity ([1]; pH 2, 40 ± 2° C., RH 75 ± 5%, storage 24 hours): 99.4%
- Relative purity ([1]; pH 2, 40 ± 2° C., RH 75 ± 5%, storage 130 hours): 95.8%
- Relative purity ([1]; pH 5, 25 ± 2° C., RH 60 ± 5%, storage 0 hours (initial set to 100%)): 100.0%
- Relative purity ([1]; pH 5, 25 ± 2° C., RH 60 ± 5%, storage 24 hours): 100.0%
- Relative purity ([1]; pH 5, 25 ± 2° C., RH 60 ± 5%, storage 130 hours): 100.0%
- Relative purity ([1]; pH 5, 40 ± 2° C., RH 75 ± 5%, storage 0 hours (initial set to 100%)): 100.0%
- Relative purity ([1]; pH 5, 40 ± 2° C., RH 75 ± 5%, storage 24 hours): 100.0%
- Relative purity ([1]; pH 5, 40 ± 2° C., RH 75 ± 5%, storage 130 hours): 100.0%
- Relative purity ([1]; pH 7, 25 ± 2° C., RH 60 ± 5%, storage 0 hours (initial set to 100%)): 100.0%
- Relative purity ([1]; pH 7, 25 ± 2° C., RH 60 ± 5%, storage 24 hours): 100.0%
- Relative purity ([1]; pH 7, 25 ± 2° C., RH 60 ± 5%, storage 130 hours): 100.0%
- Relative purity ([1]; pH 7, 40 ± 2° C., RH 75 ± 5%, storage 0 hours (initial set to 100%)): 100.0%
- Relative purity ([1]; pH 7, 40 ± 2° C., RH 75 ± 5%, storage 24 hours): 100.0%
- Relative purity ([1]; pH 7, 40 ± 2° C., RH 75 ± 5%, storage 130 hours): 100.0%
- Relative purity ([1]; pH 9, 25 ± 2° C., RH 60 ± 5%, storage 0 hours (initial set to 100%)): 100.0%
- Relative purity ([1]; pH 9, 25 ± 2° C., RH 60 ± 5%, storage 24 hours): 100.0%
- Relative purity ([1]; pH 9, 25 ± 2° C., RH 60 ± 5%, storage 130 hours): 100.0%
- Relative purity ([1]; pH 9, 40 ± 2° C., RH 75 ± 5%, storage 0 hours (initial set to 100%)): 100.0%
- Relative purity ([1]; pH 9, 40 ± 2° C., RH 75 ± 5%, storage 24 hours): 99.9%
- Relative purity ([1]; pH 9, 40 ± 2° C., RH 75 ± 5%, storage 130 hours): 99.8%
- CR (mice in which the tumor disappeared) (MDA-MB-231; 100 mg/kg Day 2, 4, 6 after paclitaxel 20 mg/kg Day 0 and 1, ten mice): 20%
- Reduction in tumor volume compared to control group (MDA-MB-231; [4]): 48%
- Reduction in tumor weight compared to control group (MDA-MB-231; [4]): 51%
- Day on which the tumor disappeared (MDA-MB-231; co-administered with paclitaxel, two mice): 14 days
- Duration of the efficacy of a single-cycle drug treatment (MDA-MB-231; combination administration with paclitaxel): ≤ 2 weeks
- LC3II expression compared to the group treated with only anti-PD-L1 ([2]; 12 h, P<0.001): significantly decreased
- Cleaved PARP expression compared to the group treated with only anti-PD-L1 ([2]; 24 h, P<0.05): significantly increased
- Adverse findings related to the pentapeptide [3, 5]: no adverse findings
- Deaths [3, 5]: no deaths occurred
- No observed adverse effect level (NOEAL) ([3]; female and male, subcutaneous, daily for 4 weeks): greater than or equal to 2,000 mg/kg/day
